In PubChem BioAssay (NCI):
“And” between values parts separate entries of the source, which are not always exact repeats. Equal entries are not always repeated.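 Assay format: 96-well plates, 48-hour exposure. GI50 is the concentration that inhibits growth by half. Definition used: TGI = concentration required for complete inhibition of growth.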

Experiments:
Test in all cases: growth of human tumour cells (NCI), 48 h
[1] = tested on: HT29 colon
[2] = tested on: MDA-N
[3] = tested on: HL-60(TB) leukemia
[4] = tested on: PC-3 prostate
[5] = tested on: MCF7 breast
[6] = tested on: SK-MEL-28 melanoma
[7] = tested on: HCC-2998 colon
[8] = tested on: MDA-MB-231 breast
[9] = tested on: UACC-62 melanoma
[10] = tested on: HOP-18 NSCLC

SMILES | TGI [1] | TGI [2] | TGI [3] | TGI [4] | TGI [5] | TGI [6] | TGI [7] | TGI [8] | TGI [9] | TGI [10] [µM] | GI50 [1] | GI50 [2] [µg/mL] | GI50 [4] | GI50 [5] | GI50 [6] | GI50 [7] | GI50 [8] | GI50 [9] | GI50 [10] [µM] | GI50 [3] [µM]
O=C(O)c1ccc(S(=O)(=O)N=Nc2c(O)[nH]c3ccccc23)cc1 | > 100 µM | > 100 µM | > 100 µM | > 100 µM | > 100 µM | > 100 µM | > 100 µM | > 100 µM | > 100 µM | – | – | – | – | – | – | – | – | – | – | –
CN(/N=C/c1ccnc2ccccc12)c1ccc([N+](=O)[O-])cc1[N+](=O)[O-] | > 100 µM | – | > 100 µM | – | – | > 100 µM | > 100 µM | – | > 100 µM | > 100 | – | – | – | – | – | – | – | – | – | –
CC1CCC2C(C)C3C(CC4C5CC=C6CC(OC7OC(CO)C(O)C(OC8OC(CO)C(O)C(O)C8O)C7OC7OC(C)C(O)C(O)C7O)CCC6(C)C5CCC43C)N2C1 (stereo not given) | 25.6 µM and > 2.5 µg/mL | 23.7 µM and > 2.5 µg/mL | 25.4 µM | 28.5 µM and > 2.5 µg/mL | 29.1 µM and > 2.5 µg/mL | 21.8 µM and > 2.5 µg/mL | 35 µM and > 2.5 µg/mL | 27.8 µM and > 2.5 µg/mL | 27.7 µM and > 2.5 µg/mL | – | > 2.5 µg/mL | > 2.5 | > 2.5 µg/mL | > 2.5 µg/mL | > 2.5 µg/mL | > 2.5 µg/mL | > 2.5 µg/mL | > 2.5 µg/mL | – | –
O=C1C=CN(C2OC(CO)C(O)C2O)C(=O)C1 (stereo not given) | 625 µM and > 1730 µM | > 2500 µM | 625 µM and > 2500 µM | > 2500 µM | 625 µM and > 2500 µM | > 2500 µM | 625 µM and > 2500 µM | > 2500 µM | 625 µM and > 1840 µM | > 2500 | 13 µM | – | – | 4.63 µM | > 625 µM and 252 µM | – | – | 33.3 µM | > 625 | 6.25
CCc1ccc(/C(C)=N/NC(N)=S)cc1 | > 100 µM | – | – | – | – | > 100 µM | > 100 µM | – | > 100 µM | > 100 | – | – | – | – | – | – | – | – | – | –
O=C(N=Nc1c(O)[nH]c2c(Cl)cc(Cl)cc12)c1ccncc1 | 75.7 µM | 29.1 µM | > 100 µM | 40.2 µM | > 100 µM | 50.5 µM | > 100 µM | 39.4 µM | 33 µM | – | – | – | – | – | – | – | – | – | – | –
N#CCC(=O)N/N=C1/C(=O)NC(=O)C(=O)C1c1nc2ccccc2s1 (stereo not given) | > 100 µM | – | – | – | – | > 100 µM | > 100 µM | – | > 100 µM | > 100 | – | – | – | – | – | – | – | – | – | –
CN(C)c1nc(N(C)C)n2nc(-c3ccccc3[N+](=O)[O-])nc2n1 | > 100 µM | – | > 100 µM | – | – | > 100 µM | > 100 µM | – | > 100 µM | > 100 | – | – | – | – | – | – | – | – | – | –
C[C@H]1COC2(c3ccccc3)CCC(=O)N12 (stereo not given in full) | > 100 µM | – | – | – | – | > 100 µM | – | – | > 100 µM | > 100 | – | – | – | – | – | – | – | – | – | –
O=C1OC(c2ccccc2)=N/C1=C\c1c(O)cc(O)cc1O | > 100 µM | – | – | – | – | > 100 µM | – | – | > 100 µM | > 100 | – | – | – | – | – | – | – | – | – | –
COc1cccc2c1cc([N+](=O)[O-])c1c(C(=O)O)cc3c(c12)OCO3 | 2.42 µM and 10.4 µM | > 100 µM | > 100 µM and 51.5 µM | > 100 µM | > 100 µM | > 100 µM | 18.9 µM and 9.62 µM | > 100 µM | > 100 µM | – | 0.352 µM | – | 27.8 µM | 30.7 µM | 46.7 µM | 3.91 µM | 59.9 µM | – | – | 35.1
OCC(O)COc1c(Cl)ccc(Cl)c1Cl (stereo not given) | > 100 µM | – | > 100 µM | – | – | > 100 µM | > 100 µM | – | > 100 µM | > 100 | – | – | – | – | – | – | – | – | – | –
COc1ccc2[nH]c(-c3cccc(N(C)C)c3)cc(=O)c2c1 | 1.46 µM and 3.21 µM | 0.156 µM | 0.592 µM and 0.569 µM | > 100 µM | > 100 µM | > 100 µM | 3.29 µM and 2.29 µM | > 100 µM | > 100 µM | – | 0.345 µM | – | 0.435 µM | – | 0.795 µM | 0.472 µM | 2.1 µM | 0.483 µM | – | 0.231
Cc1[nH]c(=O)nc(CC(O)(c2ccccc2)c2ccccc2)c1-c1ccccc1 | > 100 µM | – | > 100 µM | – | – | > 100 µM | > 100 µM | – | > 100 µM | > 100 | – | – | – | – | – | – | – | – | – | –
C=C1C(=O)O[C@H]2[C@H]1[C@H](OC(=O)/C(C)=C\C)C[C@]1(CO1)[C@@H]1[C@H](OC(C)=O)C=C(C)[C@]21O | 30.4 µM | 34.8 µM | 12.9 µM | > 58.8 µM | 29.1 µM | 30.6 µM | 35.5 µM | 39.5 µM | 32.2 µM | – | – | – | – | – | – | – | – | – | – | –
Fc1ccc(F)c(C2SCc3nc4ccccc4n32)c1 (stereo not given) | > 100 µM | – | 53.9 µM | – | – | – | > 100 µM | – | > 100 µM | > 100 | – | – | – | – | – | – | – | – | – | –
CS(=O)(=O)OCCN(CCOS(C)(=O)=O)c1ccc(C=Nc2ccc3oc(=O)ccc3c2)cc1 | 53.6 µM | 35.8 µM | 41.3 µM | 80.7 µM | > 93.5 µM | 64.4 µM | 7.77 µM | 80.8 µM | 19.8 µM | – | – | – | – | – | – | – | – | – | – | –
CCc1ccccc1-n1c2nc(=O)n(C)c(=O)c-2nc2ccccc21 | 14.3 µM | – | – | – | – | – | 25.6 µM | – | 5.15 µM | 25 | – | – | – | – | – | – | – | – | – | –
COc1cc(OC)c(OC)cc1/C=C1\C=Cc2ccccc21 | > 100 µM | 58.2 µM | 35.2 µM | > 100 µM | > 100 µM | 47.6 µM | 28.4 µM | 50.9 µM | – | – | – | – | – | – | – | – | – | – | – | –
COc1ccc(/C(Cl)=C(\C=O)c2ccc(OC)c(OC)c2)cc1OC | > 67.9 µM | > 100 µM | > 100 µM | > 100 µM | > 100 µM | > 100 µM | > 100 µM | > 100 µM | > 100 µM | > 100 | – | – | – | – | – | – | – | – | – | –
